The text below walks through data of patent US20180064659A1, “AGENTS USEFUL FOR TREATING OBESITY, DIABETES AND RELATED DISORDERS” (The Regents of the University of California, priority 2015, published 2018).

The subject of the assay is FL83B cells. In words: High-throughput in-cell western blot (ICWB) screen for insulin sensitizers, P-Akt over P-ERK. To be noted: 1689 molecules screened. In kind it is cell-based, mouse. As for the experimental part: Drugs were screened by in-cell western blot (ICWB) for their ability to stimulate phospho-Akt activation in the presence of trace or 10 nM insulin (FIG. 4A). Cells in wells were treated with drugs, and the activity (phosphorylation) of Akt was determined by a phospho-Akt specific antibody. In FIG. 4A, low insulin was given and drugs a, b, c, stimulated Akt activation. In FIG. 4B, 10 nM insulin was given and a, b, and c stimulated signaling over background, and d and […] inhibited. […] Drugs were primarily screened for their ability to promote insulin-dependent stimulation of (phospho)Akt, then secondarily screened for lack of activity to stimulate (phospho) Erk, or a high Akt/Erk ratio. Such drugs are expected to cause insulin sensitivity, resistance to obesity, and longevity. Some drugs having these desired characteristics are Shc inhibitors.
Primary ICWB was performed as follows: FL83B cells were seeded on 384 well plates, 10,000 cells per well in F-12 media supplemented with 10% FBS and 25 mM glucose; 48 hours later the media was replaced with F-12, 25 mM glucose without FBS for sixteen hours; cells were supplemented with assigned drug at desired concentration for 1 hour in duplicate and then, the cells were stimulated with desired concentration of insulin for ten minutes for Akt activation and fifteen minutes for ERK activation measurements. After that time the media was removed and replaced with fixing solution of 5% Formaldehyde in PBS, pH=7.4, 30 minutes later, the fixing solution was replaced with the permeabilization buffer, 0.1% triton X100 in PBS for 40 minutes. […] After the incubation with the secondary antibodies for one hour at room temperature, the wells were washed again two times with the 0.1% tween-20 in PBS and scanned on the Li-Cor Odyssey infrared scanner; images were analyzed with the Li-Cor Odyssey software. […] Phospho-Akt, Phospho-ERK signals than were normalized by tubulin signals in each well and the densitometric results were analyzed to identify drugs which improved metabolic insulin sensitivity without inducing the mitogenic ERK activation. […]

As to `CN(C)C(=N)N=C(N)N` [metformin], the “Score rank in screening assay” value is given as “scored in the top 35 out of 1689 molecules”.
